How the values were obtained:
[1] = test system: c-myc in Human AML MV4-11 cells; experiment: Inhibition of cMYC expression (mRNA, real-time PCR) in MV4-11 cells; assay type: cell-based; conditions: 3 h treatment, cMYC mRNA by real-time PCR
Procedure: MV4-11 cells (CRL-9591) were plated at a density of 2.5×10^4 cells per well in 96 well U-bottom plates and treated with increasing concentrations of test compound or DMSO (0.1%) in IMDM media containing 10% FBS and penicillin/streptomycin, and incubated for 3 h at 37′C. Triplicate wells were used for each concentration. Cells were pelleted by centrifugation and harvested using the mRNA Catcher PLUS kit according to manufacturer's instructions. The eluted mRNA isolated was then used in a one-step quantitative real-time PCR reaction, using components of the RNA UltraSense™ One-Step Kit (Life Technologies) together with Applied Biosystems TaqMan® primer-probes for cMYC and Cyclophilin. Real-time PCR plates were run on a ViiA™7 real time PCR machine (Applied Biosystems), data was analyzed, normalizing the Ct values for cMYC to an internal control, prior to determining the fold expression of each sample, relative to the control.

Human AML MV-4-11 cells = experiment: Inhibition of cell proliferation in MV4-11 cells (CellTiter Aqueous One); assay type: cell-based; conditions: for IC50: MV4-11, 72 h; for Cell Proliferation activity: 72 h
Procedure: MV4-11 cells (CRL-9591) were plated at a density of 5×10^4 cells per well in 96 well flat bottom plates and treated with increasing concentrations of test compound or DMSO (0.1%) in IMDM media containing 10% FBS and penicillin/streptomycin. Triplicate wells were used for each concentration and a well containing only media was used as a control. Plates were incubated at 37° C., 5% CO2 for 72 h before adding 20 µL of the CellTiter Aqueous One Solution (Promega) to each well and incubated at 37° C., 5% CO2 for an additional 3-4 h. The absorbance was read at 490 nm in a spectrophotometer and the percentage of cell titer relative to DMSO-treated cells was calculated after correcting for background by subtracting the blank well's signal. IC50 values were calculated using the GraphPad Prism software.

[2] = biological target: Brd4 bromodomain 1 (BRD4(1)) (Homo sapiens, UniProt O60885); experiment: Inhibition of tetra-acetylated histone H4 binding to Brd4 bromodomain 1, measured by FRET (HTRF); design: made in house; host or cells: E. coli BL21(DE3); conditions: 2 h at room temperature
Procedure: Proteins were cloned and overexpressed with a N-terminal 6×His tag, then purified by nickel affinity followed by size exclusion chromatography. Briefly, E. coli BL21(DE3) cells were transformed with a recombinant expression vector encoding N-terminally Nickel affinity tagged bromodomains from Brd2, Brd3, Brd4. Cell cultures were incubated at 37° C. with shaking to the appropriate density and induced overnight with IPTG. The supernatant of lysed cells was loaded onto Ni-IDA column for purification. Eluted protein was pooled, concentrated and further purified by size exclusion chromatography. Fractions representing monomeric protein were pooled, concentrated, aliquoted, and frozen at −80° C. for use in subsequent experiments.
Binding of tetra-acetylated histone H4 and BET bromodomains was confirmed by a Homogenous Time Resolved Fluorescence Resonance Energy Transfer (HTRF®) method. N-terminally His-tagged bromodomains (200 nM) and biotinylated tetra-acetylated histone H4 peptide (25-50 nM, Millipore) were incubated in the presence of Europium Cryptate-labeled streptavidin (Cisbio Cat. #610SAKLB) and XL665-labeled monoclonal anti-His antibody (Cisbio Cat. #61HISXLB) in a white 96 well microtiter plate (Greiner). For inhibition assays, serially diluted test compound was added to these reactions in a 0.2% final concentration of DMSO. Duplicate wells were used for each concentration tested. Final buffer concentrations were 30 mM HEPES pH 7.4, 30 mM NaCl, 0.3 mM CHAPS, 20 mM phosphate pH 7.0, 320 mM KF, 0.08% BSA. After a 2 h incubation at room temperature, fluorescence was measured at 665 and 620 nm with a SynergyH4 plate reader (Biotek). The binding inhibitory activity was shown by a decrease in 665 nm relative to 620 nm fluorescence. IC50 values were determined from a dose response curve.

| Compound | IC50 [1] | IC50 (Human AML MV-4-11 cells) | IC50 [2] | Cell Proliferation activity (Human AML MV-4-11 cells) |
| --- | --- | --- | --- | --- |
| Cc1ccc(C#N)cc1-c1cc(-c2c(C)noc2C)cc2[nH]c(NC3CCOCC3)nc12 [Example Compound 198, 3-(6-(3,5-dimethyl-isoxazol-4-yl)-2-((tetrahydro-2H-pyran-4-yl)amino)-1H-benzo[d]imidazol-4-yl)-4-methyl benzonitrile] | ≤ 300 nM | ≤ 300 nM | ≤ 300 nM | – |
| Cc1ccc(C(N)=O)cc1-c1cc(-c2c(C)noc2C)cc2[nH]c(N3CCOCC3)nc12 [Example Compound 197, 3-(6-(3,5-dimethyl-isoxazol-4-yl)-2-morpholino-1H-benzo[d]imidazol-4-yl)-4-methyl benzamide] | 300 to 3000 nM | 300 to 3000 nM | ≤ 300 nM | – |
| Cc1noc(C)c1-c1cc(-c2ccc[nH]c2=O)c2nc[nH]c2c1 [Example Compound 56, 3-(6-(3,5-dimethyl-isoxazol-4-yl)-1H-benzo[d]imidazol-4-yl)pyridin-2(1H)-one] | – | – | 300 to 3000 nM | Not active |
| CSc1nc2c(-c3c(C)nn(C)c3C)cc(-c3c(C)noc3C)cc2n1C [Example Compound 188, 3,5-dimethyl-4-(1-methyl-2-(methylthio)-4-(1,3,5-trimethyl-1H-pyrazol-4-yl)-1H-benzo[d]imidazol-6-yl)isoxazole] | 300 to 3000 nM | 300 to 3000 nM | 300 to 3000 nM | – |
| Cc1noc(C)c1-c1cc(-c2c(C)nn(C)c2C)c2nc(NC3CCN(C)CC3)[nH]c2c1 [Example Compound 185, 6-(3,5-dimethyl-isoxazol-4-yl)-N-(1-methyl-piperidin-4-yl)-4-(1,3,5-trimethyl-1H-pyrazol-4-yl)-1H-benzo[d] imidazol-2-amine] | 300 to 3000 nM | 300 to 3000 nM | ≤ 300 nM | – |
| Cc1nc2c(-c3cccc(C(N)=O)c3C)cc(-c3c(C)noc3C)cc2[nH]1 [Example Compound 126, 3-(6-(3,5-dimethylisoxazol-4-yl)-2-methyl-1H-benzo[d]imidazol-4-yl)-2-methylbenzamide] | ≤ 300 nM | 300 to 3000 nM | ≤ 300 nM | – |
| Cc1noc(C)c1-c1cc(Nc2ccc(Cl)cc2)c2nc[nH]c2c1 [Example Compound 40, N-(4-chlorophenyl)-6-(3,5-dimethyl-isoxazol-4-yl)-1H-benzo[d] imidazol-4-amine] | – | 3000 to 30000 nM | ≤ 300 nM | – |
| Cc1noc(C)c1-c1cc(-c2c(C)noc2C)c2nn[nH]c2c1 [Example Compound 95, 4,4′-(1H-benzo[d][1,2,3]triazole-4,6-diyl)bis(3,5-dimethylisoxazole)] | – | – | 300 to 3000 nM | Not active |
| Cc1nc2c(-c3cncc(F)c3C)cc(-c3c(C)noc3C)cc2[nH]1 [Example Compound 125, 4-(4-(5-fluoro-4-methyl-pyridin-3-yl)-2-methyl-1H-benzo[d]imidazol-6-yl)-3,5-dimethyl isoxazole] | 300 to 3000 nM | 300 to 3000 nM | ≤ 300 nM | – |
| Cc1noc(C)c1-c1cc(-c2c(C)nn(C)c2C)c2nc(NC3CCOCC3)[nH]c2c1 [Example Compound 190, 6-(3,5-dimethyl-isoxazol-4-yl)-N-(tetrahydro-2H-pyran-4-yl)-4-(1,3,5-trimethyl-1H-pyrazol-4-yl)-1H-benzo[d] imidazol-2-amine] | 300 to 3000 nM | ≤ 300 nM | ≤ 300 nM | – |
| CCNc1nc2c(-c3cccnc3C)cc(-c3c(C)noc3C)cc2[nH]1 [Example Compound 100, 6-(3,5-dimethylisoxazol-4-yl)-N-ethyl-4-(2-methylpyridin-3-yl)-1H-benzo[d]imidazol-2-amine] | ≤ 300 nM | 300 to 3000 nM | ≤ 300 nM | – |
| Cc1noc(C)c1-c1cc(-c2c(C)noc2C)c2nc(NC3CCN(C)CC3)[nH]c2c1 [Example Compound 232, 4,6-bis(3,5-dimethyl-isoxazol-4-yl)-N-(1-methyl-piperidin-4-yl)-1H-benzo[d] imidazol-2-amine] | – | 300 to 3000 nM | ≤ 300 nM | – |
| Cc1ccc(C(N)=O)cc1-c1cc(-c2c(C)noc2C)cc2[nH]c(NC3CCOCC3)nc12 [Example Compound 200, 3-(6-(3,5-dimethyl-isoxazol-4-yl)-2-((tetrahydro-2H-pyran-4-yl)amino)-1H-benzo[d]imidazol-4-yl)-4-methyl benzamide] | ≤ 300 nM | ≤ 300 nM | ≤ 300 nM | – |
| Cc1noc(C)c1-c1cc(-c2c(C)nn(C)c2C)c2nc(N3CCOCC3)[nH]c2c1 [Example Compound 184, 4-(6-(3,5-dimethyl-isoxazol-4-yl)-4-(1,3,5-trimethyl-1H-pyrazol-4-yl)-1H-benzo[d]imidazol-2-yl)morpholine] | ≤ 300 nM | ≤ 300 nM | ≤ 300 nM | – |
| Cc1noc(C)c1CNc1cc(-c2c(C)noc2C)cc2[nH]cnc12 [Example Compound 39, 6-(3,5-dimethyl-isoxazol-4-yl)-N-((3,5-dimethyl-isoxazol-4-yl)methyl)-1H-benzo[d] imidazol-4-amine] | 300 to 3000 nM | 300 to 3000 nM | ≤ 300 nM | – |
| Cc1noc(C)c1-c1cc(-c2cnn(C)c2)c2nc[nH]c2c1 [Example Compound 29, 3,5-dimethyl-4-(4-(1-methyl-1H-pyrazol-4-yl)-1H-benzo[d]imidazol-6-yl)isoxazole] | 300 to 3000 nM | 3000 to 30000 nM | ≤ 300 nM | – |
| Cc1noc(C)c1-c1cc(-c2c(C)noc2C)c2ncnn2c1 [Example Compound 17, 4,4′-([1,2,4]triazolo [1,5-a]pyridine-6,8-diyl)bis (3,5-dimethyl-isoxazole)] | – | – | 3000 to 30000 nM | – |
| Cc1nc2c(-c3ccc4c(c3)OCO4)cc(-c3c(C)noc3C)cc2[nH]1 [Example Compound 103, 4-(4-(benzo[d] [1,3]dioxol-5-yl)-2-methyl-1H-benzo[d]imidazol-6-yl)-3,5-dimethyl isoxazole] | 300 to 3000 nM | 300 to 3000 nM | ≤ 300 nM | – |
| Cc1noc(C)c1-c1cc(NCc2ccccn2)c2nc[nH]c2c1 [Example Compound 47, 6-(3,5-dimethyl-isoxazol-4-yl)-N-(pyridin-2-ylmethyl)-1H-benzo[d] imidazol-4-amine] | 300 to 3000 nM | 300 to 3000 nM | ≤ 300 nM | – |
| Cc1ccc(C(=O)N2CCCC2)cc1-c1cc(-c2c(C)noc2C)cc2[nH]c(N3CCCC3)nc12 [Example Compound 218, (3-(6-(3,5-dimethylisoxazol-4-yl)-2-(pyrrolidin-1-yl)-1H-benzo[d]imidazol-4-yl)-4-methylphenyl)(pyrrolidin-1-yl)methanone] | – | – | ≤ 300 nM | – |
| CSc1nc2c(-c3c(C)nn(C)c3C)cc(-c3c(C)noc3C)cc2[nH]1 [Example Compound 187, 3,5-dimethyl-4-(2-(methylthio)-4-(1,3,5-trimethyl-1H-pyrazol-4-yl)-1H-benzo[d]imidazol-6-yl)isoxazole] | ≤ 300 nM | ≤ 300 nM | ≤ 300 nM | – |
| Cc1nc2c(-c3cccnc3N)cc(-c3c(C)noc3C)cc2[nH]1 [Example Compound 82, 3-(6-(3,5-dimethyl-isoxazol-4-yl)-2-methyl-1H-benzo[d]imidazol-4-yl)pyridin-2-amine] | – | – | 300 to 3000 nM | – |

Source: patent US9999616B2 (ZENITH EPIGENETICS LTD., priority 2013, dated 2018)
